In publication PMC5259778, “Candidate pheromone receptors of codling moth Cydia pomonella respond to pheromones and kairomones” (Scientific Reports, 2017):

How the values were obtained:
CpomOrco = CpomOrco (Cydia pomonella, UniProt H9A5M2); experiment: Calcium imaging of HEK293T cells expressing homomeric CpomOrco; assay type: cell-based; details: peak amplitudes normalized to response at 1000 μM agonist, read-out: [A]1/2 half-effective concentration of agonist, calcium response
Method: HEK293T cells were grown in HEK cell media [Dulbecco’s modified Eagle’s medium containing 10% fetal bovine serum (MP Biomedicals, Solon, OH, USA), 2.0 mM L-glutamine, and 100 μg/mL Penicillin/Streptomycin (Invitrogen)] at 37 °C and 5% CO2. To test transient expression of CpomORs for calcium imaging or patch-clamp recording experiments, 35-mm petri dishes containing semi-confluent HEK293T cells were transiently transfected. To transfect cells with CpomOrco, we used 1.0 μg of pcDNA5/TO/CpomOrco DNA. In order to promote expression of the OR[51], we used double aliquots for pcDNA5/TO/CpomOR DNAs (2.0 μg), combined with 1.0 μg of pcDNA5/TO/CpomOrco for co-transfections (CpomOrco + ORs). […]
(§1) Fluorescence imaging was performed using Imaging Workbench 6 software (INDEC BioSystems, Santa Clara, CA, USA). Each cell was assigned a region of interest (ROI) and changes in fluorescence intensity within each ROI were measured and expressed as the fractional change in fluorescence intensity (dF) or in some cases as dF/F0 where F0 is the basal fluorescence level before agonist application. […] Continuous traces of multiple responses were compensated for slow drift of the baseline fluorescence when necessary. […]

CpomOrco + OR complexes = experiment: Calcium imaging of HEK293T cells expressing heteromeric CpomOrco + OR complexes; assay type: cell-based, Cydia pomonella; details: heteromeric complexes; peak amplitudes normalized to response at 1000 μM agonist; read-out: [A]1/2 half-effective concentration of agonist, calcium response
Method: HEK293T cells were grown in HEK cell media [Dulbecco’s modified Eagle’s medium containing 10% fetal bovine serum (MP Biomedicals, Solon, OH, USA), 2.0 mM L-glutamine, and 100 μg/mL Penicillin/Streptomycin (Invitrogen)] at 37 °C and 5% CO2. To test transient expression of CpomORs for calcium imaging or patch-clamp recording experiments, 35-mm petri dishes containing semi-confluent HEK293T cells were transiently transfected. To transfect cells with CpomOrco, we used 1.0 μg of pcDNA5/TO/CpomOrco DNA. In order to promote expression of the OR[51], we used double aliquots for pcDNA5/TO/CpomOR DNAs (2.0 μg), combined with 1.0 μg of pcDNA5/TO/CpomOrco for co-transfections (CpomOrco + ORs). To report expression for calcium imaging experiments, 1.0 μg of a separate plasmid DNA [pEBFP2-Nuc, a gift from Robert Campbell (Addgene plasmid # 14893[52])] carrying the coding sequence for a blue fluorescent protein (BFP) was used. In patch-clamp recordings, 1.0 μg of a separate plasmid DNA (pXOOM, Clontech) carrying the coding sequence for a green fluorescent protein (GFP) was used to report expression. In order to report candidate OR-expressing cells, expression of both fluorescent reporter genes was under the regulation of the same promoter for CpomOR genes (CMV). Transfection DNAs were dissolved in 100 μL sterile DMEM, mixed with 3.0 μL Calfectin (SignaGen, Rockville, MD, USA) following the recommended protocol. To estimate transfection efficiency, a parallel transfection was conducted using the positive control vector pcDNA5/TO/LACZ (Invitrogen) and staining with 0.1% XGal[53]. […]
as §1

Chain of CpomOrco (H9A5M2 entry or part of it): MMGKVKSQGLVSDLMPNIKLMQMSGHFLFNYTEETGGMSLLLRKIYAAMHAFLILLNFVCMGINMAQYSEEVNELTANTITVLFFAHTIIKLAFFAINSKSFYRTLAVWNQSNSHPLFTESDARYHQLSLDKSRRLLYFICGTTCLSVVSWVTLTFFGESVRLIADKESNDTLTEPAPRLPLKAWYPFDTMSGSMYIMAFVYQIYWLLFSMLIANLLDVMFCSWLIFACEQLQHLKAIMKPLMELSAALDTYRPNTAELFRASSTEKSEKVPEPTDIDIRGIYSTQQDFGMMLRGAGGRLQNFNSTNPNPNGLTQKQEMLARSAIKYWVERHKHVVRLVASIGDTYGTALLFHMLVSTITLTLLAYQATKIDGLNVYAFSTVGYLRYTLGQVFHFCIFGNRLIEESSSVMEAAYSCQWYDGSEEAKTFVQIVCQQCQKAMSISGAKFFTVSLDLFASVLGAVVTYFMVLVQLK

`CCn1c(SCC(=O)Nc2ccc(C(C)C)cc2)nnc1-c1ccncc1` [VUAA3, acetamide,2-[[4-ethyl-5-(4-pyridinyl)-4H-1,2,4-triazol-3-yl]thio]-N-[4-(1-methylethyl)phenyl]-] was tested, and the EC50 (CpomOrco) was about 362 µM and the EC50 (CpomOrco + OR complexes) was about 140 µM.
